Legend:
Sphaerotheca fuliginea = test: Example IX-C: in vivo preventive test on Sphaerotheca fuliginea (powdery mildew on cucurbits); details: Podosphaera fuliginea, 360 h; compounds of formula IX; 500 ppm of active ingredient; gherkin plants, preventive spray; evaluated 15 days after inoculation; read-out: efficacy
Procedure: Example IX-C: In Vivo Preventive Test on Sphaerotheca Fuliginea (Powdery Mildew on Cucurbits)
(§1) The active ingredients are made soluble and homogenized in a mixture of Dimethyl sulfoxide/Acetone/Tween® 80 and then diluted in water to the desired concentration.
The young plants of gherkin are treated by spraying the active ingredient prepared as described above. Control plants are treated only with an aqueous solution of Acetone/Dimethyl sulfoxide/Tween® 80.
After 24 hours, the plants are contaminated by spraying the leaves with an aqueous suspension of Sphaerotheca fuliginea spores. The contaminated gherkin plants are incubated for 72 hours at 18° C. and at 100% relative humidity and then for 12 days at 20° C. and at 70-80% relative humidity.
The test is evaluated 15 days after the inoculation. 0% means an efficacy which corresponds to that of the control plants while an efficacy of 100% means that no disease is observed.

Puccinia recondita = test: Example IX-A: in vivo preventive test on Puccinia recondita (brown rust on wheat); details: 264 h, compounds of formula IX, 500 ppm of active ingredient, wheat plants, preventive spray, evaluated 11 days after inoculation, read-out: efficacy
Procedure: Example IX-A: In Vivo Preventive Test on Puccinia Recondita (Brown Rust on Wheat)
as §1
(§2) The young plants of wheat are treated by spraying the active ingredient prepared as described above. Control plants are treated only with an aqueous solution of Acetone/Dimethyl sulfoxide/Tween® 80.
After 24 hours, the plants are contaminated by spraying the leaves with an aqueous suspension of Puccinia recondita spores. The contaminated wheat plants are incubated for 24 hours at 20° C. and at 100% relative humidity and then for 10 days at 20° C. and at 70-80% relative humidity.
(§3) The test is evaluated 11 days after the inoculation. 0% means an efficacy which corresponds to that of the control plants while an efficacy of 100% means that no disease is observed.

Septoria tritici = test: Example IX-B: in vivo preventive test on Septoria tritici (leaf spot on wheat); details: Zymoseptoria tritici, 576 h; compounds of formula IX; 500 ppm of active ingredient; wheat plants, preventive spray; evaluated 24 days after inoculation; read-out: efficacy
Procedure: Example IX-B: In Vivo Preventive Test on Septoria Tritici (Leaf Spot on Wheat)
as §1, §2
After 24 hours, the plants are contaminated by spraying the leaves with an aqueous suspension of Septoria tritici spores. The contaminated wheat plants are incubated for 72 hours at 18° C. and at 100% relative humidity and then for 21 days at 20° C. and at 90% relative humidity.
The test is evaluated 24 days after the inoculation. 0% means an efficacy which corresponds to that of the control plants while an efficacy of 100% means that no disease is observed.

Uromyces appendiculatus = test: Example IX-D: in vivo preventive test on Uromyces appendiculatus (bean rust); details: 264 h, compounds of formula IX, 500 ppm of active ingredient, bean plants, preventive spray, evaluated 11 days after inoculation, read-out: efficacy
Procedure: Example IX-D: In Vivo Preventive Test on Uromyces Appendiculatus (Bean Rust)
as §1
The young plants of bean are treated by spraying the active ingredient prepared as described above. Control plants are treated only with an aqueous solution of Acetone/Dimethyl sulfoxide/Tween® 80.
After 24 hours, the plants are contaminated by spraying the leaves with an aqueous suspension of Uromyces appendiculatus spores. The contaminated bean plants are incubated for 24 hours at 20° C. and at 100% relative humidity and then for 10 days at 20° C. and at 70-80% relative humidity.
as §3
control plants while an efficacy of 100% means that no disease was observed.

[1] = Log P by HPLC on reversed phase columns (EEC directive 79/831 Annex V.A8; methods [a], [b], [c]); type: physicochemical; details: reversed phase HPLC column; method [a]: LC-UV, acidic range, 0.1% formic acid in water and acetonitrile as eluent (linear gradient from 10% to 95% acetonitrile)
Summary of the method: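 Reversed-phase HPLC with LC-UV detection, 10→95% acetonitrile linear gradient; aqueous eluent 0.1% formic acid [a], 0.001 M ammonium acetate, neutral [b], or 0.1% phosphoric acid [c]. Calibrated against C3–C16 alkan-2-ones of known Log P by retention-time linear interpolation; multiple values within a method separated by "+".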

chromatographic logP [1]	Structure (SMILES)	pest or weed control at 500 ppm (Sphaerotheca fuliginea)	pest or weed control at 500 ppm (Puccinia recondita)	pest or weed control at 500 ppm (Septoria tritici)	pest or weed control at 500 ppm (Uromyces appendiculatus)
3.42	N#Cc1cncn1CC(=O)c1cnc(Oc2ccc(C(F)(F)F)cc2)cc1C(F)(F)F [IX-89]	90 to 100%	80 to 89%	90 to 100%	90 to 100%
2.89	N#Cc1cncn1CC(=O)c1cnc(Oc2ccc(Br)cc2)cc1C(F)F [IX-123]		90 to 100%	90 to 100%	90 to 100%
2.73	O=C(Cn1cncc1F)c1cnc(Oc2ccc(Br)cc2)cc1C(F)(F)F [IX-82, 1-[6-(4-bromophenoxy)-4-(trifluoromethyl)-3-pyridyl]-2-(5-fluoroimidazol-1-yl)ethanone]	90 to 100%	70 to 79%	90 to 100%	90 to 100%
3	N#Cc1cncn1CC(=O)c1cnc(Oc2ccc(Cl)cc2)cc1Cl [IX-91]	90 to 100%	90 to 100%	90 to 100%	90 to 100%
3.17	O=C(Cn1cncc1Cl)c1ccc(Oc2ccc(Cl)cc2)cc1Cl [IX-04]	90 to 100%	90 to 100%	90 to 100%	90 to 100%
3.33	N#Cc1cncn1CC(=O)c1ccc(Oc2ccc(Br)cc2)cc1F [IX-62]	90 to 100%	90 to 100%	90 to 100%	90 to 100%
3.53	N#Cc1cncn1CC(=O)c1ccc(Oc2ccc(Cl)cc2)cc1Br [IX-61]	90 to 100%	90 to 100%	80 to 89%	90 to 100%
3.37	N#Cc1cncn1CC(=O)c1cnc(Oc2ccc(C(F)(F)F)cc2)cc1Br [IX-115]	90 to 100%	90 to 100%	90 to 100%	90 to 100%
3.48	N#Cc1cncn1CC(=O)c1ccc(Oc2ccc(I)cc2)cc1F [IX-63]	90 to 100%	90 to 100%	90 to 100%	90 to 100%
3.09	O=C(Cn1cncc1Cl)c1cnc(Oc2ccc(Cl)cc2)cc1C(F)(F)F [IX-43]	90 to 100%	80 to 89%	90 to 100%	90 to 100%
2.59	O=C(Cn1cncc1Cl)c1ccc(Oc2ccc(Br)cn2)cc1Cl [IX-79]	90 to 100%	80 to 89%	90 to 100%	90 to 100%
2.75	O=C(Cn1cncc1Cl)c1cnc(Oc2ccc(Cl)cc2)cc1Cl [IX-23]	90 to 100%	80 to 89%	90 to 100%	90 to 100%
2.76	O=C(Cn1cncc1F)c1ccc(Oc2ccc(Br)cc2)nc1C(F)(F)F [IX-86]	90 to 100%	90 to 100%	90 to 100%	90 to 100%
2.84	O=C(Cn1cncc1F)c1cnc(Oc2ccc(Cl)cc2F)cc1C(F)(F)F [IX-95]	90 to 100%	70 to 79%	70 to 79%	90 to 100%
3.02	O=C(Cn1cncc1Cl)c1ccc(Oc2ccc(Cl)cc2)cc1C(F)F [IX-73]		90 to 100%	90 to 100%	90 to 100%
3.46	O=C(Cn1cncc1Br)c1ccc(Oc2ccc(Br)cc2)cc1C(F)(F)F [IX-40]		80 to 89%	90 to 100%	90 to 100%

chromatographic logP [1]	Structure (SMILES)	pest or weed control at 500 ppm (Sphaerotheca fuliginea)	pest or weed control at 500 ppm (Puccinia recondita)	pest or weed control at 500 ppm (Septoria tritici)	pest or weed control at 500 ppm (Uromyces appendiculatus)
3.51	O=C(Cn1cncc1Cl)c1ccc(Oc2ccc(C(F)(F)F)cc2)cc1C(F)(F)F [IX-53]		90 to 100%	90 to 100%	90 to 100%
2.71	N#Cc1cncn1CC(=O)c1cnc(Oc2ccc(Br)nc2)cc1C(F)(F)F [IX-143]	90 to 100%	80 to 89%	90 to 100%	
3.13	N#Cc1cncn1CC(=O)c1cnc(Oc2ccc(C(F)F)cc2)cc1C(F)(F)F [IX-98]		80 to 89%	90 to 100%	90 to 100%
3.55	CC(=O)c1cncn1CC(=O)c1cnc(Oc2ccc(Cl)cc2)cc1C(F)(F)F [IX-120]		90 to 100%	90 to 100%	80 to 89%
2.53	O=C(Cn1cncc1F)c1cnc(Oc2ccc(C(F)F)cc2)cc1C(F)(F)F [IX-97]		80 to 89%	90 to 100%	90 to 100%
2.04	N#Cc1cncn1CC(=O)c1ccc(Cl)cc1 [IX-90]	80 to 89%	80 to 89%	90 to 100%	
2.8	N#Cc1cncn1CC(=O)c1ccc(Oc2ccc(Cl)cn2)cc1Cl [IX-70]	90 to 100%	80 to 89%	70 to 79%	
3.39	N#Cc1cncn1CC(=O)c1ccc(Oc2ccc(Br)cc2)nc1C(F)(F)F [IX-118]	90 to 100%		90 to 100%	80 to 89%
3.46	N#Cc1cncn1CC(=O)c1cnc(Oc2ccc(Cl)cc2F)cc1C(F)(F)F [IX-96]	90 to 100%	80 to 89%	90 to 100%	
3.32	N#Cc1cncn1CC(=O)c1ccc(Oc2ccc(OC(F)(F)F)cc2)nc1C(F)(F)F [IX-129]	90 to 100%	90 to 100%	90 to 100%	
2.84	O=C(Cn1cncc1Cl)c1ccc(Oc2ccc(C(F)(F)F)cc2)cc1 [IX-17]	90 to 100%	80 to 89%	90 to 100%	
3.23	O=C(Cn1cncc1Br)c1ccc(Oc2ccc(S(F)(F)(F)(F)F)cc2)nc1Cl [IX-26]	90 to 100%	80 to 89%	80 to 89%	
3.35	N#Cc1cncn1CC(=O)c1ccc(Oc2ccc(C(F)(F)F)cc2)nc1C(F)(F)F [IX-137]	90 to 100%	90 to 100%	90 to 100%	
2.34	N#Cc1cncn1CC(=O)c1ccc(Cl)cc1Cl [IX-99]	90 to 100%	70 to 79%	90 to 100%	
2.75	O=C(Cn1cncc1Cl)c1ccc(Oc2ccc(Cl)cn2)cc1C(F)(F)F [IX-72]	70 to 79%	80 to 89%	90 to 100%	
